Patent publication US6579857B1, “Combination cancer therapy comprising adenosine and deaminase enzyme inhibitors” (Evanston Northwestern Healthcare Research Institute, priority 1999, dated 2003)
Where two headings read alike, the source gives them in different places.

How the values were obtained:
[1] = tested on: two cultured human colon carcinoma cell lines and Chinese hamster ovary (CHO K-I) cells; settings: cited from earlier work; for toxicity when used alone: deoxycoformycin .001 to 1 μM, 2′-deoxyadenosine 0 to 500 μM
[2] = tested on: OVCAR3 ovarian cancer cells; assay: MTT cell viability assay, OVCAR3; settings: for viability at 10 µM: Homo sapiens, OVCAR-3, 60 h, read-out: cell viability as a percentage of control
Method: For the experiments MCF7 breast cancer cells and OVCAR3 ovarian cancer cells (both obtained from the American Type Culture Collection (ATCC), Manassas, Va.) were cultured in RPMI 1640 media containing 10% fetal calf serum (Life Technologies, Gaithersburg, Md.). After 24 hours of culturing at 37° C. in 5% CO2, additional medium was added containing either adenosine (final concentration 10 μM), coformycin (final concentration 10 μM), or 10 μM each of adenosine and coformycin. Additional media alone was added to control cultures.
The cells were cultured in these chemotherapeutic media for an additional 60 hours, at which time the viability of the cells were determined using an MTT assay (Celltitre 98 Aqueous 1, Promega, Madison, Wis.).
The OVCAR3 ovarian cancer cell line was cultured as described in Example 1 for 24 hours and then treated with either 5 μM (final concentration) dipyridimole alone; 10 μM adenosine plus 10 μM coformycin alone; or the combination of these two treatments. In a control sample, culture media alone was added. The cultures were grown for an additional 60 hours and then analyzed for cell growth.
The same experiments were repeating using 5 μM (final concentration) 5′-amino-5′-deoxyadenosine alone; 5 μM adenosine plus 10 μM coformycin alone; or the combination of these two treatments.
The procedures described in Example 1 were repeated using the OVCAR 3 ovarian cancer cell line, and using as therapeutic agents 10 μM coformycin in combination with 10 μM of either adenosine, 2-chloroadenosine, 8-chloroadenosine, or 8-chloro-cAMP.

MCF7 breast cancer cells = assay: MTT cell viability assay, MCF7; format: cell-based; settings: Homo sapiens, read-out: cell viability as a percentage of control
Method: (§1) Additional media alone was added to control cultures.

lymphoid cells = settings: cited from earlier work
mouse melanoma cells = settings: cited from earlier work
fibroblasts = settings: cited from earlier work
neuronal cell = settings: dose-dependent; cited from earlier work
[3] = tested on: cell lines OVCAR 3, OVCAR 5, MCF7, and HT 29; assay: Adenosine with CF or dCF, tumor cell toxicity assay (Example 4); format: cell-based; settings: 5 μM adenosine with 5 μM CF or 5 μM dCF; 60 hours
Method: as §1
The procedures described in Example 1 were repeated using cell lines OVCAR 3, OVCAR 5, MCF7, and HT 29 and using 5 μM adenosine in combination with either 5 μM CF or 5 μM dCF as the therapeutic combination of agents.

AMPDA = settings: CF versus dCF; cited from earlier work
[4] = molecular target: T1, adenosine deaminase (ADA) (Homo sapiens, UniProt P00813); settings: Cha et al. 1975; Agarwal et al. 1977; cited from earlier work
T1 sequence (P00813 1-363): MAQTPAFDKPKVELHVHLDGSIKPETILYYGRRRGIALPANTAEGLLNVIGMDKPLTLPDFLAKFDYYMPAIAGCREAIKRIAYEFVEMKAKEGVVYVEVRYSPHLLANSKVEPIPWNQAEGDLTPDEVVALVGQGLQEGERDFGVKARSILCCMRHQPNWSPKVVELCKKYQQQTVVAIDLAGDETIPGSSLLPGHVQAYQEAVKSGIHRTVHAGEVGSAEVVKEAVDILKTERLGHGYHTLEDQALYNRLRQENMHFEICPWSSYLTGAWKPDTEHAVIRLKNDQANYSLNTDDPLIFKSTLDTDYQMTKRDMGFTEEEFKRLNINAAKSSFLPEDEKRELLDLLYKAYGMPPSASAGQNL

Structure (SMILES): OC[C@H]1O[C@@H](n2cnc3c2NC=NC[C@H]3O)C[C@@H]1O [deoxycoformycin]
- toxicity when used alone [1]: Neither compound was reported to be toxic when used alone

Structure (SMILES): Nc1ncnc2c1ncn2[C@@H]1O[C@H](CO)[C@@H](O)[C@H]1O [adenosine]
- viability at 10 µM [2]: > 100%
- viability at 10 µM (MCF7 breast cancer cells; MCF7, 10 μM final concentration of each agent, 60 hours): > 100%
- concentration required for similar (80%) growth inhibition (lymphoid cells): 5 µM
- concentration giving 80% growth inhibition (mouse melanoma cells): 50 µM
- concentration required for similar (80%) growth inhibition (fibroblasts): 400 µM

Structure (SMILES): NC[C@H]1O[C@@H](n2cnc3c(N)ncnc32)[C@H](O)[C@@H]1O [5′-amino-5′-deoxyadenosine]
- block of toxic effects of Ado/CF combination ([2]; OVCAR3, 5 μM 5′-amino-5′-deoxyadenosine + 5 μM adenosine + 10 μM coformycin, 60 hours): essentially completely block
- cell growth, agent alone ([2]; OVCAR3, 5 μM 5′-amino-5′-deoxyadenosine alone, 60 hours): ~80 % of control

Structure (SMILES): Nc1ncnc2c1ncn2[C@H]1C[C@H](O)[C@@H](CO)O1 [2′-deoxyadenosine]
- concentration of maximal neuronal cell toxicity (neuronal cell): 300 µM
- toxicity when used alone [1]: Neither compound was reported to be toxic when used alone
- concentration required to approach full cell growth inhibition ([1]; in combination with deoxycoformycin): 50 to 150 µM

Structure (SMILES): OC[C@H]1O[C@@H](n2cnc3c2N=CNC[C@H]3O)[C@H](O)[C@@H]1O [coformycin]
- viability at 10 µM [2]: > 100%
- viability at 10 µM (MCF7 breast cancer cells; MCF7, 60 h): > 100%
- potentiation of adenosine toxicity [3]: consistently potentiated to toxicity of the adenosine to a greater extent than the deoxycoformycin
- fold more potent inhibitor of AMPDA (AMPDA): 50 fold
- Ki [4]: 0.025 nM

Structure (SMILES): OCCN(CCO)c1nc(N2CCCCC2)c2nc(N(CCO)CCO)nc(N3CCCCC3)c2n1 [dipyridamole]
- cell growth with protective agent added to Ado/CF ([2]; OVCAR3, 5 μM dipyridimole + 10 μM adenosine + 10 μM coformycin, 60 hours): approximating that of the untreated control
- cell growth as percentage of the control ([2]; OVCAR3, 5 μM dipyridimole alone or 10 μM adenosine plus 10 μM coformycin alone, 60 hours): comparable to the control
